The results in this text go back to BindingDB's records for PubMed 39642691 (University of California San Francisco).

As usually defined, the IC50 is the concentration that gives 50% inhibition.

The assay addresses T1, Pendrin (Homo sapiens, UniProt O43511).
T1 sequence (O43511 whole entry): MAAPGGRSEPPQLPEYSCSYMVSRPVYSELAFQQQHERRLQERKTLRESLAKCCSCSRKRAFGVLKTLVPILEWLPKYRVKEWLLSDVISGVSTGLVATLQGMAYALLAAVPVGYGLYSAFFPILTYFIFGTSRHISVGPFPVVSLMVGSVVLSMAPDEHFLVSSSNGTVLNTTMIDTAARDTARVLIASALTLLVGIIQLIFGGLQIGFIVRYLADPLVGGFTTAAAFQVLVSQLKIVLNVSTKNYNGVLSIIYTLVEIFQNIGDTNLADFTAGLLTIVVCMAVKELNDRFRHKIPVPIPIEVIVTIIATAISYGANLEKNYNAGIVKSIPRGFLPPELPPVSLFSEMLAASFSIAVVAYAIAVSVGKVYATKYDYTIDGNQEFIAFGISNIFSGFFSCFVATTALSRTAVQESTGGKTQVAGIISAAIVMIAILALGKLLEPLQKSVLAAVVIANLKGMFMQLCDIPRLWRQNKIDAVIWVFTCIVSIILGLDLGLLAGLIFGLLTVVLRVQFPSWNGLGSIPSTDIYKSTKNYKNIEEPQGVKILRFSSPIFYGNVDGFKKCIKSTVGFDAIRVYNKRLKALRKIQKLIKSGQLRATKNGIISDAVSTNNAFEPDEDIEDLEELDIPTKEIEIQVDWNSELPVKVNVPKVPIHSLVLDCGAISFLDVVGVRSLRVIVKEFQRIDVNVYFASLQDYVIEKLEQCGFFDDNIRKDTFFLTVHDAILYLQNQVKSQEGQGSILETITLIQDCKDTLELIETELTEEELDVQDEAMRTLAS
Nature of the assay: Inhibition of Pendrin (unknown origin) transfected in rat FRT cells assessed as reduction in Cl-/I- ions exchange by YFP fluorescence quenching assay.

For the molecule `Cc1oc2ccc(OCc3ccccc3Cl)cc2c1C(=O)O`, the IC50 was 650 nM.
